The test system of assay [1] is C7-8 spinal cord motor neurons. Put plainly: Motor neuron axotomy (median and ulnar nerve) in neonatal rat. The assay is classed as in vivo. The following applies: four day old rat, unilateral axotomy of the ulnar nerve, FIG. 7E. How it is done: Median and ulnar nerve axotomy was performed on 4 day-old Wistar rat pups as previously described (Cheema et al., 1996). Peptides (c29 and vehicle only; 100 nM) were applied via a 1 mm^3 cube of pluronic gel foam that was sutured to the proximal axonal stump (Cheema et al., 1996). After 5 days the animals were perfused with a 4% solution of paraformaldehyde in phosphate buffer. Cervical spinal cords were removed, after which serial sections were cut at 40 μm, mounted onto gelatin-coated slides and stained in 0.1% cresyl violet. Details of the counting procedure have been described previously (Cheema et al., 1994).
We next investigated whether c29 could prevent motor neuron death following growth factor withdrawal in vivo using a neonatal rat axotomy model. Following unilateral median and ulnar nerve transections of postnatal day 4 (P4) rat pups, c29 or the vehicle protein transduction domain (PTD4) was applied to the proximal site of transaction in a small cube of gel foam. After a 5-day recovery, the number of surviving C7-8 spinal cord motor neurons relative to the contralateral side was determined by histological counts. Such an axotomy causes 50% of the ipsilateral motor neurons to die (Cheema et al., 1996), with control peptide treatment having no effect on this degree of cell death (FIG. 7E, F). […]

The next assay relates to motor neurons. Put plainly: Motor neuron survival in SOD1G93A mutant mice. Type of assay: in vivo, mouse. How it is done:
To determine whether c29 could reduce neuron death in a motor neuron mouse model, 60 day postnatal SOD1G93A mutant mice were injected subcutaneously by osmotic pump with 5 mg/kg of TAT-c29, scrambled peptide, or the peptide vehicle. After 115 days postnatal, neuron survival in the […] was determined.

Assay [2] in a line: Long term potentiation (LTP) in the hippocampus in vivo. Also noted: species or system mouse. From the text:
In further support of this, LTP was induced in mice by standard methods, as previously described: Kameda et al. Transl Psychiatry. 2012 Jan. 31; 2:e72. Activation of latent precursors in the hippocampus is dependent on long-term potentiation. […] BDNF acting via TrkB is well established to enhance this type of synaptic activity, including specifically hippocampal late-phase LTP at CA1-CA3 synapses (as measured here), and mice with reduced BDNF secretion show deficits in this LTP (e.g. Y. Lu et al., 2008; An et al., 2008; Ninan et al., 2010). […] In FIG. 13, c29 10 mg/kg: n=3 animals; c29 5 mg/kg: n=2 animals; scrambled 10 mg/kg: n=3 animals, c57: n=2 animals.

In the case of “YARAAARNARAKRWNSCKQNKQGANSRPVNQTPPPEGEKL (TAT-c29 - Fusion of TAT with c29)”, the “protection from motor neuron loss” value in assay [1] is listed as “significant protection from motor neuron loss”. Also, the “enhancement of motor neuron survival” value in the assay on motor neurons (5 mg/kg subcutaneously by osmotic pump from 60 days postnatal, read at 115 days postnatal) stood at 30%. In addition, in the assay on motor neurons (5 mg/kg, 115 days postnatal, equivalent of wild-type), the motor neuron number is recorded as 10 motor neurons per section per dorsal horn. The “LTP in the hippocampus” value in assay [2] (5 mg/kg I.P, after the high frequency train) is listed as “transient enhancement of LTP lasting only the first 6 minutes”; in assay [2] (10 mg/kg i.p., vs scrambled peptide- or vehicle-treated animals), “enhanced LTP”.

The values are drawn from patent US20150344535A1, “NEUROTROPHIN-TYROSINE KINASE RECEPTOR SIGNALING” (THE UNIVERSITY OF QUEENSLAND, priority 2012, published 2015).
